This assay deals with BDF1 mice, P388 leukemia ip, median survival T/C. The assay can be described thus: NCI In Vivo Anticancer Drug Screen. Data for tumor model P388 Leukemia (intraperitoneal) in B6D2F1 (BDF1) mice. As to conditions: endpoint: median survival time, higher = longer survival. The procedure, abridged: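 Transplantable tumour in mice; compound vs vehicle dosing; survival scored; ratio of treated to control reported.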

The mark [1] stands for this setting: dose: 50.0 mg/kg/injection, schedule: Q01DX009 (ip), vehicle: saline with Tween-80.
The mark [2] stands for this setting: dose: 100.0 mg/kg/injection, schedule: Q01DX009 (ip), vehicle: saline with Tween-80.
[3] abbreviates: dose: 200.0 mg/kg/injection, schedule: Q01DX009 (ip), vehicle: saline with Tween-80.
The mark [4] stands for this setting: dose: 25.0 mg/kg/injection, schedule: Q01DX009 (ip), vehicle: saline with Tween-80.
The mark [5] stands for this setting: dose: 100.0 mg/kg/injection, schedule: Q04DX003 (ip), vehicle: saline with Tween-80.
[6] abbreviates: dose: 50.0 mg/kg/injection, schedule: Q04DX003 (ip), vehicle: Klucel (hydroxypropylcellulose) (HPC).
Where [7] appears, read: dose: 12.5 mg/kg/injection, schedule: Q04DX003 (ip), vehicle: saline.
Where [8] appears, read: dose: 100.0 mg/kg/injection, schedule: Q01DX009 (ip), vehicle: Klucel (hydroxypropylcellulose) (HPC).
Setting [9] is: dose: 100.0 mg/kg/injection, schedule: Q04DX003 (ip), vehicle: Klucel (hydroxypropylcellulose) (HPC).
Setting [10] is: dose: 200.0 mg/kg/injection, schedule: Q01DX009 (ip), vehicle: Klucel (hydroxypropylcellulose) (HPC).
Where [11] appears, read: dose: 200.0 mg/kg/injection, schedule: Q04DX003 (ip), vehicle: Klucel (hydroxypropylcellulose) (HPC).
Setting [12] is: dose: 25.0 mg/kg/injection, schedule: Q04DX003 (ip), vehicle: saline.
Where [13] appears, read: dose: 50.0 mg/kg/injection, schedule: Q04DX003 (ip), vehicle: saline.
Setting [14] is: dose: 50.0 mg/kg/injection, schedule: Q01DX009 (ip), vehicle: Klucel (hydroxypropylcellulose) (HPC).
Where [15] appears, read: dose: 100.0 mg/kg/injection, schedule: Q04DX003 (ip), vehicle: saline.

Several values for one entry are separate records, joined by “and”; a condition that tells them apart may be missing. Equal values may be shown once. Inconclusive results and toxic doses are left out.

Consider `Nc1nc(N)c2cc(S(=O)(=O)c3ccc(Cl)c(Cl)c3)ccc2n1`, for which the T/C was 100 % of control under setting [1], 91 % of control under setting [2] and 102 % of control under setting [3].
For the molecule `CC(=O)[O][Hg][c]1cc[c]([Hg][O]C(C)=O)s1`, the T/C runs as follows: (dose: 3.0 mg/kg/injection, schedule: Q01DX009 (ip), vehicle: Klucel (hydroxypropylcellulose) (HPC)) 100 % of control; (dose: 3.0 mg/kg/injection, schedule: Q04DX003 (ip), vehicle: Klucel (hydroxypropylcellulose) (HPC)) 91 % of control; (dose: 6.0 mg/kg/injection, schedule: Q01DX009 (ip), vehicle: Klucel (hydroxypropylcellulose) (HPC)) 100 % of control; (dose: 6.0 mg/kg/injection, schedule: Q04DX003 (ip), vehicle: Klucel (hydroxypropylcellulose) (HPC)) 100 % of control; (dose: 12.0 mg/kg/injection, schedule: Q01DX009 (ip), vehicle: Klucel (hydroxypropylcellulose) (HPC)) 100 % of control; (dose: 12.0 mg/kg/injection, schedule: Q04DX003 (ip), vehicle: Klucel (hydroxypropylcellulose) (HPC)) 100 % of control.
Take `CC(=O)CC(=O)Nc1ccccn1`: the T/C was 95 % of control under setting [4], 92 % of control under setting [1], 98 % of control under setting [2] and 104 % of control under setting [3].
Turning to `[Cl][Hg][c]1ccc2ccccc2c1`, the T/C (dose: 12.5 mg/kg/injection, schedule: Q01DX009 (ip), vehicle: gum acacia) is 112 % of control.
Turning to `COC(=O)C(CSCSC)NC(=O)NC1CCCCC1` (stereo not given), the T/C under setting [5] is 95 % of control; the T/C (dose: 200.0 mg/kg/injection, schedule: Q04DX003 (ip), vehicle: saline with Tween-80) was 104 % of control; the T/C (dose: 400.0 mg/kg/injection, schedule: Q04DX003 (ip), vehicle: saline with Tween-80) was 95 % of control.
In the case of `O=C(CCl)c1ccc[nH]1`, the T/C by setting is: (dose: 25.0 mg/kg/injection, schedule: Q04DX003 (ip), vehicle: Klucel (hydroxypropylcellulose) (HPC)) 95 % of control; under setting [6], 91 % of control.
For `CC1(C)N=C(N)N=C(N)N1c1ccc(CCc2ccccc2)c(Cl)c1`, the T/C (dose: 4.0 mg/kg/injection, schedule: Q01DX009 (ip), vehicle: saline with Tween-80) was 122 % of control.
As for `Nc1c(O)nc[nH]c1=O`, the T/C is 95 % of control (dose: 1.56 mg/kg/injection, schedule: Q01DX009 (ip), vehicle: saline); 109 % of control and 100 % of control (dose: 3.13 mg/kg/injection, schedule: Q01DX009 (ip), vehicle: saline); 95 % of control (dose: 3.13 mg/kg/injection, schedule: Q04DX003 (ip), vehicle: saline); 100 % of control (dose: 6.25 mg/kg/injection, schedule: Q01DX009 (ip), vehicle: saline); 86 % of control and 100 % of control (dose: 6.25 mg/kg/injection, schedule: Q04DX003 (ip), vehicle: saline); 100 % of control (dose: 12.5 mg/kg/injection, schedule: Q01DX009 (ip), vehicle: saline). Also, under setting [7], the T/C was 100 % of control.
In the case of `NC(=O)C1(c2ccccc2)CCN(Cc2ccccc2)CC1`, the T/C is 96 % of control under setting [1]; 100 % of control (dose: 50.0 mg/kg/injection, schedule: Q04DX003 (ip), vehicle: saline with Tween-80); 111 % of control under setting [2]; 90 % of control under setting [5].
In the case of `c1ccc2c(c1)C1CC(N3CCCCC3)C2c2ccccc21` (stereo not given), the T/C runs as follows: under setting [8], 90 % of control; under setting [9], 95 % of control; under setting [10], 86 % of control; under setting [11], 100 % of control; (dose: 400.0 mg/kg/injection, schedule: Q01DX009 (ip), vehicle: Klucel (hydroxypropylcellulose) (HPC)) 90 % of control; (dose: 400.0 mg/kg/injection, schedule: Q04DX003 (ip), vehicle: Klucel (hydroxypropylcellulose) (HPC)) 91 % of control.
Take `COCCn1c2nc(=O)n(-c3ccccc3)c(=O)c-2nc2ccccc21`: the T/C was 89 % of control (dose: 12.5 mg/kg/injection, schedule: Q01DX009 (ip), vehicle: saline with Tween-80); 114 % of control under setting [4]; 91 % of control under setting [1].
On to `NCC=C1C2CC3CC(C2)CC1C3`, for which the T/C under setting [7] is 103 % of control, the T/C under setting [12] is 100 % of control and the T/C under setting [13] is 100 % of control.
In the case of `C/C(=N\NC(N)=O)c1ccc(Cl)cc1`, the T/C is 94 % of control under setting [14] and 108 % of control under setting [8].
Turning to `Nc1c(Br)cc2c(c1Br)Cc1cc(Br)ccc1-2`, the T/C is 91 % of control under setting [2] and 87 % of control under setting [3].
Consider `CC(=O)O/N=C(/C)c1ccccc1`, for which the T/C is 100 % of control (dose: 25.0 mg/kg/injection, schedule: Q04DX003 (ip), vehicle: saline sonified); 100 % of control (dose: 50.0 mg/kg/injection, schedule: Q04DX003 (ip), vehicle: saline sonified); 100 % of control (dose: 100.0 mg/kg/injection, schedule: Q04DX003 (ip), vehicle: saline sonified).
As to `O=c1[nH]c(Cl)ncc1F`, the T/C (dose: 67.0 mg/kg/injection, schedule: Q01DX009 (ip), vehicle: saline with Tween-80) was 100 % of control; the T/C (dose: 75.0 mg/kg/injection, schedule: Q04DX003 (ip), vehicle: saline with Tween-80) was 113 % of control; the T/C under setting [2] was 103 % of control; the T/C (dose: 150.0 mg/kg/injection, schedule: Q01DX009 (ip), vehicle: saline with Tween-80) was 107 % of control; the T/C (dose: 150.0 mg/kg/injection, schedule: Q04DX003 (ip), vehicle: saline with Tween-80) was 100 % of control; the T/C (dose: 225.0 mg/kg/injection, schedule: Q01DX009 (ip), vehicle: saline with Tween-80) was 111 % of control. Further, the T/C (dose: 300.0 mg/kg/injection, schedule: Q04DX003 (ip), vehicle: saline with Tween-80) was 86 % of control.
Consider `OC/C=[CH]\[Sn]([c]1ccccc1)([c]1ccccc1)[c]1ccccc1`, for which the T/C is, setting by setting: under setting [1], 89 % of control; under setting [2], 115 % of control; under setting [3], 106 % of control.
Regarding `CCCCNC(=O)OC`, the T/C was 100 % of control under setting [14]; 100 % of control under setting [6]; 100 % of control under setting [8]; 95 % of control under setting [9]; 115 % of control under setting [11].
On to `Cc1cc(N(CCCl)CCCl)ccc1/C=N\Nc1nncn1N`, for which the T/C is, setting by setting: (dose: 35.0 mg/kg/injection, schedule: Q01DX007 (ip), vehicle: Klucel (hydroxypropylcellulose) (HPC)) 157 % of control; (dose: 45.0 mg/kg/injection, schedule: Q04DX003 (ip), vehicle: Klucel (hydroxypropylcellulose) (HPC)) 120 % of control; (dose: 50.0 mg/kg/injection, schedule: Q01DX007 (ip), vehicle: Klucel (hydroxypropylcellulose) (HPC)) 175 % of control; (dose: 75.0 mg/kg/injection, schedule: Q01DX007 (ip), vehicle: Klucel (hydroxypropylcellulose) (HPC)) 211 % of control; under setting [8], 118 % of control; (dose: 132.0 mg/kg/injection, schedule: Q04DX003 (ip), vehicle: Klucel (hydroxypropylcellulose) (HPC)) 213 % of control. Further, the T/C is 163 % of control (dose: 132.0 mg/kg/injection, schedule: Q04DX003 (ip), vehicle: saline); 90 % of control under setting [10]; 218 % of control under setting [11]; 122 % of control (dose: 300.0 mg/kg/injection, schedule: Q04DX003 (ip), vehicle: Klucel (hydroxypropylcellulose) (HPC)); 90 % of control (dose: 300.0 mg/kg/injection, schedule: Q04DX003 (ip), vehicle: saline).
Take `Nc1ccn[nH]1`: the T/C was 100 % of control (dose: 100.0 mg/kg/injection, schedule: Q01DX009 (ip), vehicle: saline); 100 % of control under setting [15]; 100 % of control (dose: 200.0 mg/kg/injection, schedule: Q01DX009 (ip), vehicle: saline); 109 % of control (dose: 200.0 mg/kg/injection, schedule: Q04DX003 (ip), vehicle: saline); 118 % of control (dose: 400.0 mg/kg/injection, schedule: Q01DX009 (ip), vehicle: saline); 122 % of control (dose: 400.0 mg/kg/injection, schedule: Q04DX003 (ip), vehicle: saline).
For the molecule `Cc1cc(Cl)c2ccccc2[n+]1C`, the T/C runs as follows: under setting [12], 96 % of control; under setting [13], 88 % of control; under setting [15], 103 % of control.

These data come from PubChem BioAssay AID328 (DTP/NCI, 2004).
